# Experimental data taken from the supplement of paper PMC10307832.
# Legend:
# Assay in all cases: relative viability (nuclei count vs DMSO), 5 days (fraction); higher = more cells survive
# Ponatinib + Bortezomib = compound: Cc1ccc(C(=O)Nc2ccc(CN3CCN(C)CC3)c(C(F)(F)F)c2)cc1C#Cc1cnc2cccnn12 [Ponatinib] + CC(C)C[C@H](NC(=O)[C@H](Cc1ccccc1)NC(=O)c1cnccn1)B(O)O [Bortezomib] (partner 0.002 µM)
# Procedure, shortened: (§1)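 Relative viability was taken as the ratio of nuclei in treated wells to nuclei in vehicle wells. Lung cancer cell lines in 1536-well plates received compounds by pin tool one day after seeding, either one drug alone or a fixed anchor-drug dose plus five library-drug doses (not always all listed) in √10 steps. Nuclei were counted on 4× images after 5 days of treatment, and values are medians of duplicate plates.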
# Pazopanib + Luminespib = compound: Cc1ccc(Nc2nccc(N(C)c3ccc4c(C)n(C)nc4c3)n2)cc1S(N)(=O)=O [Pazopanib] + CCNC(=O)c1noc(-c2cc(C(C)C)c(O)cc2O)c1-c1ccc(CN2CCOCC2)cc1 [Luminespib] (partner 0.01 µM)
# Procedure, shortened: as §1
# Pazopanib + Dasatinib = compound: Cc1ccc(Nc2nccc(N(C)c3ccc4c(C)n(C)nc4c3)n2)cc1S(N)(=O)=O [Pazopanib] + Cc1nc(Nc2ncc(C(=O)Nc3c(C)cccc3Cl)s2)cc(N2CCN(CCO)CC2)n1 [Dasatinib] (partner 0.075 µM)
# Procedure, shortened: as §1
# Ponatinib + Decitabine = compound: Cc1ccc(C(=O)Nc2ccc(CN3CCN(C)CC3)c(C(F)(F)F)c2)cc1C#Cc1cnc2cccnn12 [Ponatinib] + Nc1ncn([C@H]2C[C@H](O)[C@@H](CO)O2)c(=O)n1 [Decitabine] (partner 2 µM)
# Procedure, shortened: as §1
Cell Line,relative viability (Ponatinib + Bortezomib; first compound 0.002 µM),relative viability (Ponatinib + Bortezomib; first compound 0.006325 µM),relative viability (Ponatinib + Bortezomib; first compound 0.06325 µM),relative viability (Ponatinib + Bortezomib; first compound 0.2 µM),relative viability (Pazopanib + Luminespib; first compound 0.01 µM),relative viability (Pazopanib + Luminespib; first compound 0.03162 µM),relative viability (Pazopanib + Luminespib; first compound 0.1 µM),relative viability (Pazopanib + Luminespib; first compound 0.3162 µM),relative viability (Pazopanib + Luminespib; first compound 1 µM),relative viability (Pazopanib + Dasatinib; first compound 0.01 µM),relative viability (Pazopanib + Dasatinib; first compound 0.03162 µM),relative viability (Pazopanib + Dasatinib; first compound 0.1 µM),relative viability (Pazopanib + Dasatinib; first compound 0.3162 µM),relative viability (Pazopanib + Dasatinib; first compound 1 µM),relative viability (Ponatinib + Decitabine; first compound 0.002 µM),relative viability (Ponatinib + Decitabine; first compound 0.006325 µM),relative viability (Ponatinib + Decitabine; first compound 0.06325 µM),relative viability (Ponatinib + Decitabine; first compound 0.2 µM)
NCI-H1563,0.773,0.847,0.836,0.571,0.476,0.507,0.497,0.519,0.526,0.473,0.451,0.471,0.485,0.5,,,,
NCI-H1623,,,,,0.465,0.515,0.512,0.479,0.634,0.507,0.467,0.509,0.488,0.608,,,,
NCI-H1648,,,,,,,,,,,,,,,0.464,0.615,0.429,0.358
NCI-H1703,0.296,0.261,0.26,0.143,,,,,,,,,,,,,,
NCI-H1793,,,,,,0.235,0.198,0.186,0.235,,0.357,0.412,0.372,0.533,0.451,0.526,0.561,0.499
NCI-H1944,,,,,,0.784,0.771,0.86,0.857,,0.226,0.226,0.237,0.247,0.422,0.433,0.482,0.43
NCI-H2170,,,,,0.675,0.766,0.712,0.532,0.627,0.536,0.572,0.537,0.511,0.639,0.508,0.481,0.467,0.431
NCI-H2228,0.933,1.1,0.755,0.893,0.142,0.135,0.153,0.155,0.177,0.589,0.561,0.383,0.481,0.457,,,,
NCI-H2342,,,,,0.671,0.736,0.612,0.759,0.588,0.303,0.339,0.305,0.297,0.278,0.74,0.703,0.837,0.77
SK-MES-1,,,,,0.846,0.79,0.746,0.913,0.75,0.361,0.34,0.414,0.474,0.383,0.392,0.334,0.419,0.372
SW 900,,,,,0.153,0.177,0.177,0.177,0.164,0.539,0.731,0.596,0.66,0.543,0.447,0.43,0.518,0.481
